Reference: patent publication US20260078122A1, “INDAZOLE COMPOUNDS AS PKMYT1 KINASE INHIBITORS” (Hoffmann-La Roche Inc., priority 2023, published 2026)
Like-named read-outs stand apart in the source and are kept apart here.

Tests used:
[1] = target: T1, recombinant human Myt1 (full length PKMYT1) (Homo sapiens, UniProt Q99640); assay: ADP-Glo assay (Myt1 kinase activity)
T1 sequence (Q99640 1-499): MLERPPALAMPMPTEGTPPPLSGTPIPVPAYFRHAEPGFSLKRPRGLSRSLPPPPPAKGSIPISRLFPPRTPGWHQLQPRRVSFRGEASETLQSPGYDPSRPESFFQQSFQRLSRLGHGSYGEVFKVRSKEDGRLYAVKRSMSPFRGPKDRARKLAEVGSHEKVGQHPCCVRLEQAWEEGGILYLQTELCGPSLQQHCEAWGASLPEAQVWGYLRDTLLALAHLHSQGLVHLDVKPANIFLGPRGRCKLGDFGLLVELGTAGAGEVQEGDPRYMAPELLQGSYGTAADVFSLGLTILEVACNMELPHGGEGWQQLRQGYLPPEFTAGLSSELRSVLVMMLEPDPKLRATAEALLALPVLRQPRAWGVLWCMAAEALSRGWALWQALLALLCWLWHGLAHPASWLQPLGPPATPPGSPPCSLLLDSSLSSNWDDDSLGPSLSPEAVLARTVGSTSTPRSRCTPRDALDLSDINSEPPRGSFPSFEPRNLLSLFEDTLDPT

[2] = GSH adduct screening assay; type: in vitro ADME, human; design: key: GSH adducts found (Flag); or not (No Flag); details: 20 μM compound, HLM 1 mg/ml, 5 mM GSH, 1 mM NADPH, 60 minutes at 37° C.
[3] = Human microsome stability assay; details: 1 μM compound, 0.5 mg/mL liver microsomal protein, 1 mM NADPH, 37° C., 0-30 minutes
[4] = Human hepatocyte stability assay; type: in vitro ADME; details: 1 μM compound, 1*10^6 cells/mL, 2-120 min
[5] = microsomes, pH 7.4

Row | IC50 [1] [nM] | GSH adduct [2] | Clearance of Human microsome [3] [mL/min/kg] | Clearance of Human hepatocyte (μL/min/10^6 cell) [4] [μL/min/10^6 cell] | SMILES | Clearance of Human microsome [5] [mL/min/kg]
1 | 11.5 | No Flag | – | – | Cc1nc(Cl)c2c(-c3ccc(F)c4[nH]ncc34)c(N)c(=O)[nH]c2c1C [Example 160, 3-Amino-5-chloro-4-(7-fluoro-1H-indazol-4-yl)-7,8-dimethyl-1H-1,6-naphthyridin-2-one] | –
2 | < 10 | – | 6.15 | <1 | Cc1c(Cl)cnc2c(-c3ccc(F)c4[nH]ncc34)c(N)c(=O)[nH]c12 [Example 099, 3-Amino-7-chloro-4-(7-fluoro-1H-indazol-4-yl)-8-methyl-1H-1,5-naphthyridin-2-one] | –
3 | – | No Flag | 8.88 | – | Cc1cc2[nH]c(=O)c(N)c(-c3ccc(F)c4[nH]ncc34)c2nc1Cl [Example 003, 3-Amino-6-chloro-4-(7-fluoro-1H-indazol-4-yl)-7-methyl-1H-1,5-naphthyridin-2-one] | –
4 | < 10 | – | – | <1 | Nc1c(-c2ccc(F)c3[nH]ncc23)c2c(Cl)nc(C3CC3)cc2[nH]c1=O [Example 163, 3-Amino-5-chloro-7-cyclopropyl-4-(7-fluoro-1H-indazol-4-yl)-1H-1,6-naphthyridin-2-one] | –
5 | < 10 | No Flag | – | – | C#Cc1cnc2c(-c3ccc(F)c4[nH]ncc34)c(N)c(=O)[nH]c2c1C [Example 124, 3-Amino-7-ethynyl-4-(7-fluoro-1H-indazol-4-yl)-8-methyl-1H-1,5-naphthyridin-2-one] | –
6 | – | No Flag | 7.03 | 2.6 | Nc1c(-c2ccc(F)c3[nH]ncc23)c2ncc(C3CC3)cc2[nH]c1=O [Example 015, 3-Amino-7-cyclopropyl-4-(7-fluoro-1H-indazol-4-yl)-1H-1,5-naphthyridin-2-one] | –
7 | 17.3 | – | 6.15 | 1.4 | COc1cnc2c(-c3ccc(F)c4[nH]ncc34)c(N)c(=O)[nH]c2c1C [Example 136, 3-Amino-4-(7-fluoro-1H-indazol-4-yl)-7-methoxy-8-methyl-1H-1,5-naphthyridin-2-one] | –
8 | – | – | – | 1.3 | Cc1cnc2c(-c3ccc(F)c4[nH]ncc34)c(N)c(=O)[nH]c2c1 [Example 002, 3-Amino-4-(7-fluoro-1H-indazol-4-y1)-7-methyl-1H-1,5-naphthyridin-2-one] | –

Continued, compound first:

Row | SMILES | IC50 [1] [nM] | GSH adduct [2] | Clearance of Human microsome [3] [mL/min/kg] | Clearance of Human hepatocyte (μL/min/10^6 cell) [4] [μL/min/10^6 cell] | Clearance of Human microsome [5] [mL/min/kg]
9 | N#Cc1nc(C2CC2)cc2[nH]c(=O)c(N)c(-c3ccc(F)c4[nH]ncc34)c12 [Example 167, 3-Amino-7-cyclopropyl-4-(7-fluoro-1H-indazol-4-yl)-2-oxo-1H-1,6-naphthyridine-5-carbonitrile] | 14.5 | – | 6.80 | <1 | –
10 | Cc1cnc2c(-c3ccc(Cl)c4[nH]ncc34)c(N)c(=O)[nH]c2c1C [Example 146, 3-Amino-4-(7-chloro-1H-indazol-4-yl)-7,8-dimethyl-1H-1,5-naphthyridin-2-one] | < 10 | – | 6.15 | 1.2 | –
11 | Cc1c(CC(F)(F)F)cnc2c(-c3ccc(F)c4[nH]ncc34)c(N)c(=O)[nH]c12 [Example 133, 3-Amino-4-(7-fluoro-1H-indazol-4-yl)-8-methyl-7-(2,2,2-trifluoroethyl)-1H-1,5-naphthyridin-2-one] | < 10 | – | – | 1.7 | –
12 | Cc1ncc(OCC(F)(F)F)c2c(-c3ccc(F)c4[nH]ncc34)c(N)c(=O)[nH]c12 [Example 183, 3-Amino-4-(7-fluoro-1H-indazol-4-yl)-8-methyl-5-(2,2,2-trifuoroethoxy)-1H-1,7-naphthyridin-2-one] | 13.4 | – | 6.20 | <1 | –
13 | COc1cnc(C)c2[nH]c(=O)c(N)c(-c3ccc(F)c4[nH]ncc34)c12 [Example 173, 3-Amino-4-(7-fluoro-1H-indazol-4-yl)-5-methoxy-8-methyl-1H-1,7-naphthyridin-2-one] | 15.2 | – | 6.15 | <1 | –
14 | CCOc1cnc(C)c2[nH]c(=O)c(N)c(-c3ccc(F)c4[nH]ncc34)c12 [Example 184, 3-Amino-5-ethoxy-4-(7-fluoro-1H-indazol-4-yl)-8-methyl-1H-1,7-naphthyridin-2-one] | < 10 | – | 6.20 | 1.3 | –
15 | Cc1cc2[nH]c(=O)c(N)c(-c3ccc(F)c4[nH]ncc34)c2nc1N1CC2(COC2)C1 [Example 026, 3-Amino-4-(7-fluoro-1H-indazol-4-yl)-7-methyl-6-(2-oxa-6-azaspiro[3.3]heptan-6-yl)-1H-1,5-naphthyridin-2-one] | – | – | – | – | 8.87
